We go through one compound from paper PMC11074101 (Cell Discovery, 2024).

Common to all, as to assay type: cell-based
The target in one assay is T1, MCHR1 WT (Homo sapiens, UniProt Q99705).
T1 construct: expressed in transfected cells; host or cells: HEK293
Description: GloSensor cAMP assay, MCHR1 WT (Gαi). The note with it: HEK293, GloSensor cAMP, normalized by WT receptor, mean ± S.E.M., n = 3 in triplicate. An excerpt: (§1) The gene sequences encoding human MCHR1 (residues 70‒405) and MCHR2 (residues 1‒331, with L256^6.40Y mutation) were subcloned into pFastBac vector (Invitrogen) with an N-terminal haemagglutinin signal peptide (HA) and a thermostabilized BRIL fusion, followed by a C-terminal 15-amino acid linker, a LgBiT subunit and two MBPs to facilitate receptor expression and stability. The Gαi construct was designed with dominant-negative mutations S47N, G203A, A326S, and E245A to decrease the affinity of nucleotide-binding and stable Gαβγ complex. The mini-Gαq construct was designed with the C-terminal α-helix (αH5) of Gαq, which is critical for G protein coupling selectivity. The core of the construct, known as the Ras domain, is derived from Gαs. This design choice was made to enable the binding of the nanobody Nb35, which stabilizes the complex for cryo-EM analysis. […] Rat Gβ1 was constructed with a N-terminal 16× His-tag for purification and a C-terminal HiBiT to form a NanoBiT with LgBiT. […] The wild-type and mutants of MCHR1 and MCHR2 were constructed into the pcDNA6.0 vector […] for functional assays.
(§2) GloSensor cAMP assay was used to detect the downstream Gαi signal of MCHR1 using GloSensor cAMP Reagent (Promega).
(In general: Cyclic AMP is a second messenger, typically raised through Gs and lowered through Gi signalling.)

The target in another assay is T2, MCHR1 Q171(2.63)A (Homo sapiens, UniProt Q99705, Q102A).
T2 construct: expressed in transfected cells; host or cells: HEK293
T2 sequence (Q99705 whole entry Q102A): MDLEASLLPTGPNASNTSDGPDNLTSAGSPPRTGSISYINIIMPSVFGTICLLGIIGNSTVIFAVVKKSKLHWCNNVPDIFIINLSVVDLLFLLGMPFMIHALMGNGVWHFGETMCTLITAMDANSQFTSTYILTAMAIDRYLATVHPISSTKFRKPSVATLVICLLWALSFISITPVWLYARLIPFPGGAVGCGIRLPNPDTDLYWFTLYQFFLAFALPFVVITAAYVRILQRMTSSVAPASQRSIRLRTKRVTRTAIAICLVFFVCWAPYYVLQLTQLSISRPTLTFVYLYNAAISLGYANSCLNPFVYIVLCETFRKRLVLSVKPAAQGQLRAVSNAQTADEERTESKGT
Description: GloSensor cAMP assay, MCHR1 Q171A. The note with it: HEK293, mean ± S.E.M., n = 3 in triplicate.
From the text: as §1, §2

Another assay has as its target T3, MCHR1 Q196(3.36)A (Homo sapiens, UniProt Q99705, Q127A).
T3 construct: expressed in transfected cells; host or cells: HEK293
Description: GloSensor cAMP assay, MCHR1 Q196A. The note with it: HEK293, mean ± S.E.M., n = 3 in triplicate.
From the text: as §1, §2

A further assay has as its target T4, MCHR1 I254(ECL2)A (Homo sapiens, UniProt Q99705, I185A).
T4 construct: expressed in transfected cells; host or cells: HEK293
Description: GloSensor cAMP assay, MCHR1 I254A. Conditions: HEK293, mean ± S.E.M., n = 3 in triplicate.
From the text: as §1, §2

For a further assay, the target named is T5, MCHR1 I265(45.52)A (Homo sapiens, UniProt Q99705, I196A).
T5 construct: expressed in transfected cells; host or cells: HEK293
T5 sequence (Q99705 whole entry I196A): as the sequence (Q99705 whole entry Q102A) above, with A102Q, I196A counted along it
As to the kind of experiment: GloSensor cAMP assay, MCHR1 I265A. The note with it: HEK293, mean ± S.E.M., n = 3 in triplicate.
From the text: as §1, §2

The next assay addresses T6, MCHR1 Y341(6.51)A (Homo sapiens, UniProt Q99705, Y272A).
T6 construct: expressed in transfected cells; host or cells: HEK293
As to the kind of experiment: GloSensor cAMP assay, MCHR1 Y341A. Conditions: HEK293, mean ± S.E.M., n = 3 in triplicate.
From the text: as §1, §2

The target in a further assay is T7, MCHR1 I366(7.39)A (Homo sapiens, UniProt Q99705, I297A).
T7 construct: expressed in transfected cells; host or cells: HEK293
T7 sequence (Q99705 whole entry I297A): as the sequence (Q99705 whole entry Q102A) above, with A102Q, I297A counted along it
Description: GloSensor cAMP assay, MCHR1 I366A. The note with it: HEK293, mean ± S.E.M., n = 3 in triplicate.
From the text: as §1, §2

For the next assay, the target named is T8, MCHR2 L89(2.60)A (Homo sapiens, UniProt Q969V1, L89A).
T8 construct: expressed in transfected cells; host or cells: AD293
T8 sequence (Q969V1 whole entry L89A): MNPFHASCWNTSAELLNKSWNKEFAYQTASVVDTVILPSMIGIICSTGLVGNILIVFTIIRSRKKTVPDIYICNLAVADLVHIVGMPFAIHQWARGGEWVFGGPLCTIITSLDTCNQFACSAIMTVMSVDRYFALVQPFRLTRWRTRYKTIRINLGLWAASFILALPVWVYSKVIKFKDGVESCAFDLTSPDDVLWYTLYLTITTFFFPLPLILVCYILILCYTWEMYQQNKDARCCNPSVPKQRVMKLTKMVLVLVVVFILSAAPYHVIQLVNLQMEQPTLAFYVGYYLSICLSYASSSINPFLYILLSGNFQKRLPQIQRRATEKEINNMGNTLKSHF
Description: IP-One IP1 accumulation assay, MCHR2 L89A. The note with it: n = 3 in triplicate. An excerpt: (§3) The gene sequences encoding human MCHR1 (residues 70‒405) and MCHR2 (residues 1‒331, with L256^6.40Y mutation) were subcloned into pFastBac vector (Invitrogen) with an N-terminal haemagglutinin signal peptide (HA) and a thermostabilized BRIL fusion, followed by a C-terminal 15-amino acid linker, a LgBiT subunit and two MBPs to facilitate receptor expression and stability. The Gαi construct was designed with dominant-negative mutations S47N, G203A, A326S, and E245A to decrease the affinity of nucleotide-binding and stable Gαβγ complex. The mini-Gαq construct was designed with the C-terminal α-helix (αH5) of Gαq, which is critical for G protein coupling selectivity. The core of the construct, known as the Ras domain, is derived from Gαs. This design choice was made to enable the binding of the nanobody Nb35, which stabilizes the complex for cryo-EM analysis. […]
(§4) IP1 accumulation assay was applied for the detection of the downstream Gαq signal of MCHR2 using the IP-One HTRF kit (Cisbio). […] Before measurement, the samples were incubated at RT for 30 min and measured with EnVision multi-plate reader (PerkinElmer).
(§5) Concentration–response curves were evaluated with a three-parameter logistic equation. The significance was determined with one-way ANOVA with Tukey’s test, and P < 0.05 vs wild type was considered statistically significant.

A further assay concerns the target T9, MCHR2 D113(3.32)A (Homo sapiens, UniProt Q969V1, D113A).
T9 construct: expressed in transfected cells; host or cells: AD293
Description: IP-One IP1 accumulation assay, MCHR2 D113A. Conditions: n = 3 in triplicate.
From the text: as §3, §4, §5

The next assay concerns the target T10, MCHR2 V181(ECL2)A (Homo sapiens, UniProt Q969V1, V181A).
T10 construct: expressed in transfected cells; host or cells: AD293
Description: IP-One IP1 accumulation assay, MCHR2 V181A. The note with it: n = 3 in triplicate.
From the text: as §3, §4, §5

The next assay addresses T11, MCHR2 V194(5.35)A (Homo sapiens, UniProt Q969V1, V194A).
T11 construct: expressed in transfected cells; host or cells: AD293
Description: IP-One IP1 accumulation assay, MCHR2 V194A. The note with it: n = 3 in triplicate.
From the text: as §3, §4, §5

Another assay has as its target T12, MCHR2 Y267(6.51)A (Homo sapiens, UniProt Q969V1, Y267A).
T12 construct: expressed in transfected cells; host or cells: AD293
Description: IP-One IP1 accumulation assay, MCHR2 Y267A. The note with it: n = 3 in triplicate.
From the text: as §3, §4, §5

Another assay concerns the target T13, MCHR2 Y285(7.32)A (Homo sapiens, UniProt Q969V1, Y285A).
T13 construct: expressed in transfected cells; host or cells: AD293
Description: IP-One IP1 accumulation assay, MCHR2 Y285A. The note with it: AD293, mean ± S.E.M., n = 3 in triplicate.
From the text: as §3, §4, §5

A further assay concerns the target T14, MCHR2 S295(7.42)A (Homo sapiens, UniProt Q969V1, S295A).
T14 construct: expressed in transfected cells; host or cells: AD293
Description: IP-One IP1 accumulation assay, MCHR2 S295A. Conditions: n = 3 in triplicate.
From the text: as §3, §4, §5

The mark [1] stands for this setting: AD293, IP-One HTRF, 37 °C 1 h, mean ± S.E.M., P < 0.0001 vs WT.

T12 sequence (Q969V1 whole entry Y267A): as the sequence (Q969V1 whole entry L89A) above, with A89L, Y267A counted along it
T10 sequence (Q969V1 whole entry V181A): as the sequence (Q969V1 whole entry L89A) above, with A89L, V181A counted along it
T9 sequence (Q969V1 whole entry D113A): as the sequence (Q969V1 whole entry L89A) above, with A89L, D113A counted along it
T11 sequence (Q969V1 whole entry V194A): as the sequence (Q969V1 whole entry L89A) above, with A89L, V194A counted along it
T14 sequence (Q969V1 whole entry S295A): as the sequence (Q969V1 whole entry L89A) above, with A89L, S295A counted along it
T13 sequence (Q969V1 whole entry Y285A): as the sequence (Q969V1 whole entry L89A) above, with A89L, Y285A counted along it
T3 sequence (Q99705 whole entry Q127A): as the sequence (Q99705 whole entry Q102A) above, with A102Q, Q127A counted along it
T4 sequence (Q99705 whole entry I185A): as the sequence (Q99705 whole entry Q102A) above, with A102Q, I185A counted along it
T1 sequence (Q99705 whole entry): as the sequence (Q99705 whole entry Q102A) above, with A102Q counted along it
T6 sequence (Q99705 whole entry Y272A): as the sequence (Q99705 whole entry Q102A) above, with A102Q, Y272A counted along it

By Emax is commonly meant the maximal effect, on the per cent scale that the assay sets. What is called EC50 is the concentration needed to bring the measured effect to its halfway point. The low end stands for higher potency in that assay, the high end for lower potency in that assay. Consider `CSCC[C@@H]1NC(=O)[C@@H](NC(=O)[C@H](CCCNC(=N)N)NC(=O)[C@H](CC(C)C)NC(=O)[C@H](CCSC)NC(=O)[C@H](CC(=O)O)NC(=O)[C@H](Cc2ccccc2)NC(=O)[C@@H](N)CC(=O)O)CSSC[C@@H](C(=O)N[C@@H](Cc2c[nH]c3ccccc23)C(=O)N[C@@H](CCC(N)=O)C(=O)N[C@H](C(=O)O)C(C)C)NC(=O)[C@@H]2CCCN2C(=O)[C@H](CCCNC(=N)N)NC(=O)[C@H](Cc2ccc(O)cc2)NC(=O)[C@H](C(C)C)NC(=O)[C@H](CCCNC(=N)N)NC(=O)CNC(=O)[C@H](CC(C)C)NC1=O` [MCH, Melanin-concentrating hormone], for which the maximal effect (Emax) turned out to be 100% on MCHR1 WT; 57 ± 6% at MCHR1 Q171(2.63)A; 97 ± 1% on MCHR1 Q196(3.36)A; 98 ± 3% at MCHR1 I254(ECL2)A; 88 ± 3% on MCHR1 I265(45.52)A; 97 ± 1% on MCHR1 Y341(6.51)A. Moreover, the Emax stood at 90 ± 5% at MCHR1 I366(7.39)A; 104 ± 2% at MCHR2 L89(2.60)A (AD293, mean ± S.E.M.); 101 ± 2% on MCHR2 D113(3.32)A (AD293, mean ± S.E.M.); 96 ± 1% on MCHR2 V181(ECL2)A (AD293, mean ± S.E.M.); 98 ± 1% on MCHR2 V194(5.35)A (AD293, mean ± S.E.M.); 92 ± 1% at MCHR2 Y267(6.51)A (AD293, mean ± S.E.M.). For the same compound, the maximal effect (Emax) is 92 ± 2% on MCHR2 Y285(7.32)A and 81 ± 2% at MCHR2 S295(7.42)A (AD293, mean ± S.E.M.). The EC50 on MCHR2 L89(2.60)A (AD293, IP-One HTRF, 37 °C 1 h, mean ± S.E.M., P 0.1322 vs WT) was 0.00912 µM; at MCHR2 D113(3.32)A (setting [1]) it was 2.04 µM; at MCHR2 V181(ECL2)A (setting [1]), 0.0537 µM; at MCHR2 V194(5.35)A (setting [1]), 0.0331 µM; on MCHR2 Y267(6.51)A (setting [1]), 0.2 µM; at MCHR2 S295(7.42)A (setting [1]), 0.234 µM.
